Data published in patent US6121457A, “Compositions and methods using novel substituted imidazolium lipids” (Megabios Corporation, priority 1998, dated 2000).

Columns and labels:
CAT protein in lungs = assay: IV gene transfer in mice: lung CAT reporter expression (plasmid p4119) by ELISA; format: in vivo, ICR female mice; details: for mean CAT expression level (CAT ELISA): formulated with cholesterol and plasmid p4119, IV, five mice each, value followed by +/- spread
Protocol: This example provides an evaluation of the cationic lipid prepared in Example 1.
Two mice studies have been performed for the evaluation of cationic lipids of the present invention, in comparison with DOTIM (see, Liu, et al, Nature Biotechnology 15:167-173 (1997)). In brief, the lipid combinations were tested as carriers for gene transfer by intravenous delivery in ICR female mice (25 g), and expression was determined using the plasmid p4119 containing the CAT reporter gene under the control of the HCMV promoter. The lipids were dissolved in a mixture of chloroform and methanol (1:1). Lipid films of cationic and neutral lipid (either cholesterol or DLPE) at a 1:1 molar ratio were formed with a rotary evaporator. The films were hydrated with 5% dextrose in water (D5W) at room temperature and extruded through a series of membranes having pore sizes of 400 nm, 200 nm, and 50 nm.
DNA-liposome complexes were prepared at a 1:6 DNA:cationic lipid ratio (mg DNA per μmole cationic lipid) by adding the DNA, in a solution at 0.625 mg/mL concentration in D5W to the solution of liposomes, in an equal volume, with constant stirring, using a Hamilton Dilutor 540B (Hamilton, Reno, Nev.). DOTIM:cholesterol was used at a 1:6 DNA:cationic lipid ratio. The DNA solution was 0.3125 mg/mL DNA in D5W. The resulting complexes were sized using a Submicron Particle Sizer 370 (Nicomp, Santa Barbara, Calif.). Zeta potential was determined by a Zeta Plus, Zeta Potential Analyzer (Brookhaven Instruments Corp.). A total of 5 mice were tested per group. A dose of 62.5 μg p4119 plasmid DNA in 200 μL D5W was injected by tail vein per mouse. The lungs were harvested after 24 hours and assayed for CAT protein by ELISA assay. […] The upper organic phase was then transferred into scintillation vials containing 5 mL of Ready Safe Liquid Scintillation Cocktail (Beckman, Fullerton, Calif.). Samples were counted for 1 min each. […]

[1] = IV toleration and necropsy observations in rabbits; format: in vivo, rabbit; details: just the lipid, about 24 h
Protocol: (§1) Pilot studies were conducted to assess the suitability of rabbits as a development model for delivery of lipid:DNA complexes. The study confirmed that rabbits offer the ability to express transfected genes as well as display some anticipated toxicity endpoints.
(§2) A 2 mL blood sample is collected immediately prior to dose delivery for serum collection and another 2 mL for a CBC/clinical chemistry screen. Sufficient blood is also collected at necropsy to perform a CBC and clinical chemistry screen and preserve serum (minimum of 8 mL).
(§3) Approximately 24 hours after dosing the animals are euthanized using a barbiturate overdose. Following euthanasia, body weights are determined and an examination is made for the presence of pleural fluid. Any fluid present is harvested while avoiding blood contamination. Total protein and albumin levels are determined on the pleural fluid.
(§4) Tissues are collected and preserved as follows: lung tissue (8 vials in liquid nitrogen, 2 lobes infused with formalin, and optionally 2 Whirlpaks® in dry ice); liver tissue (multiple sites in formalin); kidney tissue (multiple sites in formalin); spleen tissue (multiple sites in formalin); heart tissue (multiple sites in formalin); and multiple serum samples (6 mL minimum in dry ice).

[2] = system: CAT reporter protein in lung and serum; assay: IV delivery in rabbits: CAT ELISA, lung and serum; format: in vivo; details: Rabbit #4, lipid only, highest vol. IV, about 24 h
Protocol: This example provides an evaluation of Compound 1 as a suitable lipid in DNA:lipid complexes for transfection in rabbits.
as §1, §2, §3, §4

SMILES | mean CAT expression level (CAT ELISA) (CAT protein in lungs) [pg/mg] | airway foam or excessive pleural fluid [1] | lesions [1] | lung appearance at necropsy [1] | CAT ELISA, lung [2] [pg/mg] | CAT ELISA, serum [2] [pg/mL] | lung CAT expression / in vivo activity, in words (CAT protein in lungs; IV, mice, both protocols)
CCCCCCCCCCCCCCCCCC[N+]1=C(CCCCCCCCCCCCCCCCC)N(CCO)CC1 [Formula III (Compound 2)] | 853.20 | – | – | – | – | – | –
CCCCCCCC/C=C\CCCCCCCC[N+]1=C(CCCCCCC/C=C\CCCCCCCC)N(CCO)CC1 [Compound 1] | 306.09 | no airway foam or excessive pleural fluid was noted | No lesions were noted | diffusely red lungs which failed to collapse | 0 | 0 | retained the in vivo activity of DOTIM
